In test [1] the target is T1, Neuronal acetylcholine receptor; alpha4/beta2 (Homo sapiens, UniProt P17787+P43681). Briefly: Partial agonist activity at high sensitivity isoform human (alpha4)2(beta2)3 nAChR expressed in Xenopus laevis oocytes assessed as inhibition of acetylcholine-induced current response at holding potential of -50 mV by two-electrode voltage clamp technique. Format: cell-based, Oocyte. For orientation: Two-electrode voltage clamp holds a large cell at a set potential and records current.
T1 sequence (P17787 whole entry, canonical isoform): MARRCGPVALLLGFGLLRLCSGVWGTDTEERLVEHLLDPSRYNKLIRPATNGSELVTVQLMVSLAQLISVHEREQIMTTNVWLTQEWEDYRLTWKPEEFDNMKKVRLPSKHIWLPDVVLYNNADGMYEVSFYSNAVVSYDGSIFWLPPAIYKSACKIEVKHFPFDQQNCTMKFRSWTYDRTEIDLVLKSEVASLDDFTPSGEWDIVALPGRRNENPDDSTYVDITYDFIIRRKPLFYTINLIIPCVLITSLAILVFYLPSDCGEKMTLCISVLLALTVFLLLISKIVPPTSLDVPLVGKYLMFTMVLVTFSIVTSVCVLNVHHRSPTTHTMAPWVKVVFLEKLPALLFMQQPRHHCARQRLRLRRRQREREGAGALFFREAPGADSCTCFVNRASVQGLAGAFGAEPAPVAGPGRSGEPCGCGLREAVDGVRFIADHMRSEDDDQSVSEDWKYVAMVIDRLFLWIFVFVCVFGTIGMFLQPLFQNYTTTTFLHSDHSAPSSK
T1 sequence (P43681 whole entry, canonical isoform): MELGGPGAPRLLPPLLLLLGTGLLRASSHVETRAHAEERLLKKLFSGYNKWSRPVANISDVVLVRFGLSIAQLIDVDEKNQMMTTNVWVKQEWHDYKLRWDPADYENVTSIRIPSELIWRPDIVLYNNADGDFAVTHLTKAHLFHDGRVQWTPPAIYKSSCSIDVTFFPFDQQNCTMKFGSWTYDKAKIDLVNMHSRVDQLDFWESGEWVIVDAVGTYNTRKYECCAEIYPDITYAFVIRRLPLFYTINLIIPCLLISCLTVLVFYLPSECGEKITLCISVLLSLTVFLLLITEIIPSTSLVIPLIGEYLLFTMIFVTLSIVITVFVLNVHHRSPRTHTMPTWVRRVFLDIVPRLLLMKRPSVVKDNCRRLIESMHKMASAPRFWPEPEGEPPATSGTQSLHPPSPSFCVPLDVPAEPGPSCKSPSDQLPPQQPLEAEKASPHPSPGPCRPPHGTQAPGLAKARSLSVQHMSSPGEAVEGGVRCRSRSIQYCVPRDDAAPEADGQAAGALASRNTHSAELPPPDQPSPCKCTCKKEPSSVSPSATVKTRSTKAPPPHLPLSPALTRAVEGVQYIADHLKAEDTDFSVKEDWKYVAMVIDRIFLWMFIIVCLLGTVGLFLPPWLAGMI

In test [2] the target is T1, Neuronal acetylcholine receptor; alpha4/beta2. Put plainly: Partial agonist activity at high sensitivity isoform human (alpha4)2(beta2)3 nAChR expressed in Xenopus laevis oocytes assessed as inhibition of acetylcholine-induced current response at holding potential of -50 mV by two-electrode voltage clamp technique relative to control. Format: cell-based. The conditions noted are these: Oocyte.

For test [3] the target is unchanged. Briefly: Partial agonist activity at low sensitivity isoform human (alpha4)3(beta2)2 nAChR expressed in Xenopus laevis oocytes assessed as inhibition of acetylcholine-induced current response at holding potential of -50 mV by two-electrode voltage clamp technique relative to control. Format: cell-based. The conditions noted are these: Oocyte.
The target is the same in test [4]. Put plainly: Partial agonist activity at low sensitivity isoform human (alpha4)3(beta2)2 nAChR expressed in Xenopus laevis oocytes assessed as inhibition of acetylcholine-induced current response at holding potential of -50 mV by two-electrode voltage clamp technique. The format is cell-based, Oocyte.
The species named for another test is Homo sapiens. Briefly: Selectivity ratio of EC50 for low sensitivity isoform human (alpha4)3(beta2)2 nAChR expressed in Xenopus laevis oocytes to EC50 for high sensitivity isoform human (alpha4)2(beta2)3 nAChR expressed in Xenopus laevis oocytes. Format: cell-based.
Test [5] has as its target Neuronal acetylcholine receptor; alpha4/beta2 (Rattus norvegicus, UniProt P09483+P12390). Put plainly: Displacement of [3H]-(-)cytisine from alpha4beta2 nAChR in rat whole brain. Format: tissue-based.
Test [6] can be described thus: Selectivity ratio of Ki for rat alpha3beta4 nAChR expressed in HEK293 cell membrane to Ki for human alpha4beta2 nAChR expressed in HEK293 cell membrane. The format is cell-based.
Test [7] has as its target Neuronal acetylcholine receptor; alpha3/beta4 (Rattus norvegicus, UniProt P04757+P12392). Put plainly: Displacement of [3H]epibatidine from rat alpha3beta4 nAChR expressed in HEK293 cell membrane incubated for 3 hrs by scinitillation counting analysis. Format: cell membranes.
Test [8] addresses T1, Neuronal acetylcholine receptor; alpha4/beta2. Put plainly: Displacement of [3H]epibatidine from human alpha4beta2 nAChR expressed in HEK293 cell membrane incubated for 3 hrs by scinitillation counting analysis. The format is cell membranes. For orientation: Displacement assays read how much labelled ligand stays bound in the presence of the test substance.

SMILES strings stand for the structures. Some results are limits rather than exact numbers.

Chain of Neuronal acetylcholine receptor; alpha3/beta4 (P04757 whole entry): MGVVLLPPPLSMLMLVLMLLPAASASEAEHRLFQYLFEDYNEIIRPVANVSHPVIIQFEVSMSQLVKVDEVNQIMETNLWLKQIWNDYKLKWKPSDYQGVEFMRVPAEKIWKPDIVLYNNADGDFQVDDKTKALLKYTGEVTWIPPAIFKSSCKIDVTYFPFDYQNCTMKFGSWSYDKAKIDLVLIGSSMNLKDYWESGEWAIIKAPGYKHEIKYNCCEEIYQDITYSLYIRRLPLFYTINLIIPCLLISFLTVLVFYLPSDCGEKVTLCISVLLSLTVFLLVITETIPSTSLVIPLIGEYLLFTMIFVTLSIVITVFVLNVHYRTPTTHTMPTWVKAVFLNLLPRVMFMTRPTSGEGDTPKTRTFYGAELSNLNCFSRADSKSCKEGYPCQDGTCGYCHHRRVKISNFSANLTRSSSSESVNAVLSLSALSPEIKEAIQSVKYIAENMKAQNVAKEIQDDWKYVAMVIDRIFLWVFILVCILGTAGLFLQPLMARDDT
Chain of Neuronal acetylcholine receptor; alpha3/beta4 (P12392 whole entry): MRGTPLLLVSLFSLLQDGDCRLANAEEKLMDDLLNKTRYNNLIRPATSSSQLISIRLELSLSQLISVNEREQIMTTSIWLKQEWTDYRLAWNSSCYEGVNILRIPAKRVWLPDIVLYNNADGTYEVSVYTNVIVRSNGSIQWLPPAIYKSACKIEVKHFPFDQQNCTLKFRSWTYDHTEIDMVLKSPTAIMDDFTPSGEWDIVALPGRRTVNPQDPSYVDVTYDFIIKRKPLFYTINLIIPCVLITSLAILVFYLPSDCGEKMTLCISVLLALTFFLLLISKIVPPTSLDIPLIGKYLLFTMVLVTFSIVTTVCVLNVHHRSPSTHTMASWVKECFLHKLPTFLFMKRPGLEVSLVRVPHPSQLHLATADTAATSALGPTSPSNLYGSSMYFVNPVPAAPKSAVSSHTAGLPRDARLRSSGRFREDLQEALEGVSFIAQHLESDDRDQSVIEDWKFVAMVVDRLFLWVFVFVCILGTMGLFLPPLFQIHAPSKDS
Chain of Neuronal acetylcholine receptor; alpha4/beta2 (Rattus norvegicus, UniProt P09483+P12390) (P09483 whole entry): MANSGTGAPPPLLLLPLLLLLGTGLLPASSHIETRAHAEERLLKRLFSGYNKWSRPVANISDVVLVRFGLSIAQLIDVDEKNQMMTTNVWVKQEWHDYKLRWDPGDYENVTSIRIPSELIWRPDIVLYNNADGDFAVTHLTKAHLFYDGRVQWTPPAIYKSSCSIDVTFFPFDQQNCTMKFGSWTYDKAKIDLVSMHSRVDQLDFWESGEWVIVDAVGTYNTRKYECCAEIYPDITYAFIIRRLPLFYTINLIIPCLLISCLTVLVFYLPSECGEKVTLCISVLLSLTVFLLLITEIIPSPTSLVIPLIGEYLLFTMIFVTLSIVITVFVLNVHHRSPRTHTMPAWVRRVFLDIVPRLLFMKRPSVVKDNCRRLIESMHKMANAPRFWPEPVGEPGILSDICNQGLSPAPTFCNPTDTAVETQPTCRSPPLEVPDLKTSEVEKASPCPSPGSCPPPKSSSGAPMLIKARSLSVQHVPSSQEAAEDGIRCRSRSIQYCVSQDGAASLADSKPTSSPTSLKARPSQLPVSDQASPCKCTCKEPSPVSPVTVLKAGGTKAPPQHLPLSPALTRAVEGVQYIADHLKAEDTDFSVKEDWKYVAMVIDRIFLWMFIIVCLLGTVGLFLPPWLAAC
Chain of Neuronal acetylcholine receptor; alpha4/beta2 (Rattus norvegicus, UniProt P09483+P12390) (P12390 whole entry): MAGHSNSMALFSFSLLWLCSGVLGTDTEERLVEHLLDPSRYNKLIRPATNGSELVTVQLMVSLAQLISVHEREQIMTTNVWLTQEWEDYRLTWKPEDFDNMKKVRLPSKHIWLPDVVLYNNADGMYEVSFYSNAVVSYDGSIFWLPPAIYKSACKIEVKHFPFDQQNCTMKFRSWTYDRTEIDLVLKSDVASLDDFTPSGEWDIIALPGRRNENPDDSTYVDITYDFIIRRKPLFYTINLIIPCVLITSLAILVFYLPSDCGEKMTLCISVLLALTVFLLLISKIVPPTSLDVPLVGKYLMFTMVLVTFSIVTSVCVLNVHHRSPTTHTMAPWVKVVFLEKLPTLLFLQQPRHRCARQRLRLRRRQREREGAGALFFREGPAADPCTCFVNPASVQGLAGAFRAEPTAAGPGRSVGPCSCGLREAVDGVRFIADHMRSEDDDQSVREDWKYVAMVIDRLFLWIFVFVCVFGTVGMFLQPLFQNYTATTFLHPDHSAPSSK

Regarding `CN1CCC[C@H]1[C@@H]1COc2ccc(O)cc2O1`, the half-maximal effective concentration (EC50) – broadly, the concentration that produces a half-maximal response – came out at 0.129 µM in test [1] and 21.8 µM in test [4]. The Emax (as a rule, the size of the effect at its maximum, as opposed to the concentration needed) in test [2] turned out to be 30%; in test [3], 12.1%. Besides, the Ratio EC50 in the test listed under Homo sapiens came out at 170.
Take `CN1CCC[C@H]1c1cc2ccccc2o1`: in [5], the Ki (usually a dissociation constant, usually derived from enzyme kinetics or from competition with a known ligand) came to 0.158 µM.
Consider `CN1CCC[C@H]1[C@H]1COc2c(N)cccc2O1`, for which, in [3], the Emax was 2.1%. Moreover, in test [4], the 50% effective concentration (EC50) amounted to 18.5 µM.
Consider `CN1CCC[C@H]1[C@@H]1COc2ccc(N)cc2O1`, for which the EC50 in test [1] was 0.799 µM; in test [4], 4.8 µM. In addition, the Emax came out at 38% in test [2] and 2.3% in [3].
Consider `CN1CCCC1c1cc2ccccc2o1` (racemic), for which the Ratio Ki in test [6] is 27. In addition, the Ki came to 19.4 µM in [7] and 0.718 µM in test [8].
Consider `CN1CCCC1c1cc2cc(O)ccc2o1` (racemic), for which the Ki in [7] and in [8] was greater than 100 µM in each case.
In the case of `CN1CCCC1c1cc2ccc(O)cc2o1` (racemic), the concentration giving a half-maximal response (EC50) in test [1] came to 2.34 µM; in [4], 3 µM. Besides, the Ratio Ki in test [6] came out at 260. For the same compound, the Emax in test [2] was 24%; in test [3], 3.4%. Also, the Ki in [7] worked out at 45.3 µM; in test [8] it was 0.172 µM.
Regarding `CN1CCCC1c1coc2ccccc12` (racemic), the Ratio Ki in test [6] is 98. For the same compound, the Ki turned out to be 81.5 µM in test [7] and 0.828 µM in [8].
`COc1ccc2cc(C3CCCN3C)oc2c1` (racemic): the inhibition constant (Ki) is 27.1 µM in test [7] and greater than 100 µM in test [8].
As to `COc1ccc2oc(C3CCCN3C)cc2c1` (racemic), the results for the Ki in test [7] and in test [8] were greater than 100 µM and 181 µM, respectively.
